Laboratory results from publication doi:10.1101/2022.01.01.474692v1 (bioRxiv, 2022).
Where no end group is shown, it is not given here.

Assay: Solubility and behaviour in water
Type: physicochemical

Q: With GNNQQNY [GNNQQNY] as the substance, how does the “behaviour of solution in pure water” value (solubilised in pure water, pH not lowered) read?
A: The value was “tends to spontaneously aggregate”.

Q: What about the solubility in water (water, no solvent pre-treatment, solution clear and transparent) of the same substance?
A: The solubility in water was “freely soluble in water”.
